# Results reported in patent US20040229873A1, “Treatment of neurodegenerative conditions” (BTG International Limited, priority 2003, published 2004).
# Legend:
# [1] = test system: multiple sclerosis patients; conditions: cited from earlier work; for treatment of symptoms of MS / clinical positive and negative symptoms of MS: Sakurai and Kanazawa 1999; for clinical positive and negative symptoms of MS: low doses, lidocaine by iv infusion
# [2] = test system: patients suffering from MS; assay: Case studies of MS patients treated with Lamotrigine, compared with matching patients; type: in vivo, human
# From the text: The average maintenance dose of Lamotrigine in these conditions is 400 mgs per day, but the initial dose or the rate of escalation may cause several side effects.
# In the present study, the inventors followed the clinician inventor's clinical practice, which adopted two strategies that had varied from the manufacturer's recommendations. Firstly, a very slow titration process starting with 25 mgs per day increasing the dose gradually (often over several weeks) to avoid adverse events. Secondly, a maintenance dose with mean of 600 mgs per day was applied. Using these two strategies, the inventors observed improvement in the clinical activity of MS and also stabilisation of the disease process. The beneficial effects are illustrated in the following two case studies compared with matching patients who had not been treated with Lamotrigine.
# The first treated patient was a person. […] They were referred to the clinician inventor in 1998, and their clinically active disease at that time represented a valid indication for treatment with diseases modifying therapy (β-interferon or Copaxone). However, the therapy could not be started because of financial constraints that were then imposed by their Health Authority. They also complained of sharp pain affecting the legs, which was resistant to several types of analgesia and also resistant to tricyclic antidepressants. Accordingly, treatment was started with Lamotrigine to treat their pain.
# The initial dose was 25 mgs per day, which was escalated gradually as outlined above. Their Expanded Disability Status Scale at that time was 2.5. Their painful symptoms improved following Lamotrigine therapy. They also noticed improvement in their other MS-related symptoms, such as muscle spasticity in the legs and daytime fatigue. […] Their EDSS score remained stable at 2.5. Such improvement seemed to be related to Lamotrigine therapy because they had received no immunosuppressive or steroid therapy during the past four years.
# A second of Lamotrigine-treated patient was a person, who was diagnosed with relapsing remitting MS five years ago. They also had idiopathic generalised epilepsy since childhood, which was treated with sodium valproate. In the first two years following the diagnosis of MS, they had three clinical relapses. Their seizures also deteriorated and because of this, their anti-epileptic therapy was changed from sodium valproate to Lamotrigine. This drug was introduced at a low dose, and was escalated cautiously as outlined above. Their EDSS score at the beginning of treatment with Lamotrigine was 1.5. […] This improvement seemed to be related to Lamotrigine therapy since they had received no treatment with steroids or immunosuppressive drugs.
# [3] = seven MS patients, slow titration from 25 mgs per day, maintenance dose with mean of 600 mgs per day
smiles,measurement,setting,value
O=C1NC(=O)C(c2ccccc2)(c2ccccc2)N1 [phenytoin],treatment of symptoms of MS,[1],without appropriate success
CN(C)CCC=C1c2ccccc2CCc2ccccc21 [Amitriptyline],clinical relapses,"[2]; Example 1b control, person, active relapsing remitting MS",continued to have clinical relapses on a yearly basis
same,painful symptoms,"[2]; Example 1b control, person, active relapsing remitting MS, intractable pain",improved
NC(=O)N1c2ccccc2C=Cc2ccccc21 [carbamazepine],treatment of symptoms of MS,[1],without appropriate success
same,disability in multiple sclerosis patients,"[1]; even at relatively low doses, Ramsaransing et al (2000)",seriously enhance disability
Cc1cccc(C)c1OCC(C)N (stereo not shown) [mexiletine],clinical positive and negative symptoms of MS,[1],generally improve clinical positive symptoms rather than worsening negative symptoms
"Nc1nnc(-c2cccc(Cl)c2Cl)c(N)n1 [Lamotrigine, 3,5-diamino-6-(2,3-dichlorophenyl)-1,2,4-triazine]","other MS-related symptoms, such as muscle spasticity in the legs and daytime fatigue","[2]; Example 1a, person",improvement
same,clinical relapses,"[2]; Example 1a, person, relapsing remitting MS, average of one severe relapse per year before, Lamotrigine from 25 mgs per day escalated gradually",no clinical relapses since 1998
same,painful symptoms,"[2]; Example 1a, person, sharp pain affecting the legs",improved
same,EDSS score,"[2]; Example 1a, person, remained stable under Lamotrigine (2.5 at start)",2.5
same,clinical relapses,"[2]; Example 2a, person, relapsing remitting MS, three relapses in first two years before Lamotrigine",no clinical relapses
same,EDSS score,"[2]; Example 2a, person, remained stable under Lamotrigine (1.5 at start)",1.5
same,MS activity,"[2]; Examples 3-7, five other patients treated with Lamotrigine",clinical improvement
same,clinical activity of MS,[2]; [3],improvement
same,disease process,[2]; [3],stabilisation
CCN(CC)CC(=O)Nc1c(C)cccc1C [lidocaine],clinical positive and negative symptoms of MS,[1],generally improve clinical positive symptoms rather than worsening negative symptoms
